Results from patent publication US10543183B2, “Treatment and diagnosis of melanoma” (The Rockefeller University, priority 2012, dated 2020).
Structures can show the parent of a compound that is named as a salt.

How the values were obtained:
[1] = tested on: human melanoma cells (MeWo, MeWo-LM2, A375-LM3, HT-144, SK-Mel-334.2); test: tail-vein lung metastatic colonization assay; format: in vivo, mouse; settings: for reduction in lung metastatic colonization by MeWo cells: orally administered, immunocompromised mice
Procedure: After 8 hours, the transfection media was replaced with fresh media. After 48 hours, 1×10^5 cells were injected intravenously into NOD-SCID mice to assess lung metastatic colonization or through intracardiac injection into athymic nude mice to assess systemic metastasis. For cell invasion and endothelial recruitment in vitro assays, the cells were used 96 hours post-transfection.
Melanoma cells used for in vivo metastasis assays were transduced with a stably expressed retroviral construct encoding a luciferase reporter gene (Ponomarev et al., 2004), allowing us to monitor the in vivo progression of melanoma cells by bioluminescence imaging. The following numbers of melanoma cells, resuspended in 100 μL of PBS, were injected intravenously via the tail-vein: 4×10^4 MeWo cells, 2.5×10^5 HT-144 cells, 2×10^5 SK-Mel-334.2 cells, 5×10^4B 16F10 cells, and 1×10^5YUMM cells. The MeWo, HT-144, and SK-Mel-334.2 cells were injected into 6-8 week-old sex-matched NOD scid mice, while the B16F10 and YUMM cells were injected into 6-8 week-old sex-matched C57BL/6 mice. In all experiments assessing at the effects of GW3965 on metastasis formation, mice were pre-treated on a control diet or a GW3965-supplemented diet (20 mg/kg) for 10 days. To assess the effect of GW3965 treatment on brain metastasis, 1×10^5 MeWo brain-metastatic derivatives were injected intracardially into athymic nude mice. Immediately following injection, mice were randomly assigned to a control diet or GW3965-supplemented diet (100 mg/kg). To determine whether oral delivery of GW3965 can inhibit the progression of incipient metastasis, NOD Scid mice were intravenously injected with 4×10^4MeWo cells and the cells were allowed to colonize the lungs for 42 days, after which mice were blindedly assigned to a control diet or a GW3965-supplemented diet (100 mg/kg) treatment.

[2] = tested on: endothelial cells (HUVEC) recruited by human melanoma cells; test: trans-well endothelial recruitment assay; format: cell-based; settings: for ability of melanoma cells to recruit endothelial cells: MeWo, HT-144, SK-Mel-2, SK-Mel-334.2, 1 μM for 72 hours
Procedure: 5×10^4 cancer cells were seeded into 24-well plates approximately 24 hours prior to the start of the assay. HUVEC's were grown to 80% confluency and serum starved in EGM-2 media supplemented with 0.2% FBS for 16 hours. HUVEC's were then pulsed with Cell Tracker Red CMTPX dye (C34552, Invitrogen) for 45 minutes. Meanwhile, cancer cells were washed with PBS, 0.5 mL of 0.2% FBS EGM-2 media was added to each well, and a 3.0 μm HTS Fluoroblock insert (351151, BD Falcon, San Jose, Calif.) was placed into each well. 1×10^5 HUVEC's, resuspended in 0.5 mL of starvation media, were seeded into each trans-well insert, and the recruitment assay was allowed to proceed for 16-18 hours at 37° C. For neutralization antibody and/or recombinant protein experiments, antibody/protein was then added to each well at the appropriate concentration as indicated in the figures: 40 μg/mL anti-ApoE 1D7, 40 μg/mL anti-IgG, 100 μM rhApoE3, and 100 μM BSA. Upon completion of the assay, the inserts were processed and analyzed as described for the matrigel invasion assay above (See Matrigel Invasion Assay).
The endothelial recruitment assay was carried out as previously described (Pencheva et al., 2012; Png et al., 2012). Melanoma cells were treated with DMSO, GW3965, T0901317, or Bexarotene at 1 μM for 56 hours, after which 5×10^4 cells were seeded in a 24-well plate in the presence of each drug and allowed to attach for 16 hours prior to starting the assay. HUVEC cells were serum-starved overnight in EGM-2 media containing 0.2% FBS. The following day, 1×10^5 HUVEC cells were seeded into a 3.0 μm HTS Fluoroblock trans-well migration insert (351151, BD Falcon, San Jose, Calif.) fitted into each well containing cancer cells at the bottom. The HUVEC cells were allowed to migrate towards the cancer cells for 20 hours at 37° C., after which the inserts were processed as previously described (Pencheva et al., 2012). For ApoE antibody neutralization experiments, 40 μg/mL 1D7 anti-ApoE blocking antibody (Heart Institute, University of Ottawa, Ottawa, Canada) or 40 μg/mL anti-IgG control antibody (AB-108-C, R&D Systems, Minneapolis, Minn.) was added to each trans-well insert at the start of the assay.
Subsequently, 5×10^4 cancer cells were seeded into 24-well plates in the presence of each drug or DMSO and allowed to attach for 16 hours prior to starting the assay. Human umbilical vein endothelial cells (HUVEC cells) were serum-starved in 0.2% FBS-containing media overnight. The following day, 1×10^5 HUVEC cells were seeded into a 3.0 μm HTS Fluoroblock insert (351151, BD Falcon) fitted into each well containing the cancer cells at the bottom. The HUVEC cells were allowed to migrate towards the cancer cells for 20 hours, after which the inserts were washed in PBS, fixed in 4% PFA, labeled with DAPI, and mounted on slides. The basal side of each insert was imaged using an inverted fluorescence microscope (Zeiss Axiovert 40 CFL) at 5× magnification, and the number of DAPI-positive cells was quantified using ImageJ.

[3] = tested on: melanoma cells; test: cell proliferation and viability assay; format: cell-based, human; settings: for cell proliferation or cell viability rates: MeWo, HT-144, SK-Mel-334.2, 1 μM, 5 days
Procedure: To determine the effects of miR-199a or miR-1908 over-expression and combinatorial LNA-induced miRNA inhibition on cell proliferation, 2.5×10^4 cells were seeded in triplicate in 6-well plates, and viable cells were counted after 5 days. […] Viable cells were counted after 8, 24, 48, 72, and 120 hours.
After 5 days, the number of viable and dead cells was counted using the trypan blue dye (72-57-1, Sigma-Aldrich), which selectively labels dead cells.

## O=C(O)Cc1cccc(OCCCN(Cc2cccc(C(F)(F)F)c2Cl)CC(c2ccccc2)c2ccccc2)c1 [GW3965 2, 3-[3-[N-(2-Chloro-3-trifluoromethylbenzyl)-(2,2-diphenylethyl)amino]propyloxy] phenylacetic acid hydrochloride]
[1]; MeWo cells pre-treated 1 μM for 48 hours
  reduction in metastatic colonization capacity of pre-treated cells: more than 50 fold
[1]; chow 20 mg/kg
  survival times following metastatic colonization: significantly prolonged
  reduction in lung metastatic colonization by MeWo cells: 31 fold
[1]; chow diet 20 mg/kg, tail-vein injection of parental MeWo cells
  in vivo melanoma metastasis (lung, bioluminescence): significant reduction
[1]; diet 20 mg/kg
  metastatic colonization by HT-144 and SK-Mel-334.2 lines: suppressed
[1]; diet 100 mg/kg from d42
  suppression of colonization by incipient lung metastases: 28 fold
[1]; diet 100 mg/kg, d77
  number of macroscopic metastatic nodules formed: decreased
[2]
  ability of melanoma cells to recruit endothelial cells: consistently suppressed
[2]; parental MeWo cells pre-treated for 48 hours
  endothelial recruitment: decreased
[3]
  cell proliferation or cell viability rates: did not affect

## recombinant ApoE3: recombinant human ApoE3 (4696, BioVision)
[1]; MeWo-LM2 cells pre-incubated for 24 hours at 100 μg/mL before injection
  suppression of metastatic colonization: over 300 fold
[2]; 100 μM added to cell media
  endothelial recruitment by metastatic LM2 cells: significantly suppressed
[2]; endothelial cells pre-incubated 100 μM, 24 hours, LM2 cells
  ability of pre-treated endothelial cells to migrate towards highly metastatic cancer cells: significantly reduced
[3]; 100 μM
  melanoma cell or endothelial cell in vitro proliferation: did not affect

## O=S(=O)(c1ccccc1)N(CC(F)(F)F)c1ccc(C(O)(C(F)(F)F)C(F)(F)F)cc1 [T0901317 1]
[1]; chow 20 mg/kg
  reduction in lung metastatic colonization by MeWo cells: 23 fold
[2]
  ability of melanoma cells to recruit endothelial cells: consistently suppressed
[3]
  cell proliferation or cell viability rates: did not affect
